Inconclusive results are not listed. Activity calls are given as the source filed them.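 How the source made its calls: active means EC50 no more than tenfold above the top concentration tested; inconclusive means flat fit with effect between 30% and 70%, or unusable fit; inactive means EC50 beyond tenfold above the top dose.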
Tested on: BJeLR fibroblast viability, alamar blue fluorescence, 48 h
Assay: cytotoxicity toward Ras-transformed BJeLR fibroblasts, dose response, cell-based, alamar blue fluorescence, cherrypicked samples (AID 2631)

SMILES	EC50
CCc1ccc(/C=C2\SC(=S)N(CCC(=O)NCCCN3CCOCC3)C2=O)cc1	> 6.67 µM (inactive)
CCc1ccc(/C=C2/SC(=S)N(CCC(=O)NCCCN3CCOCC3)C2=O)cc1	> 6.67 µM (inactive)
